Measurements taken from patent publication US11953435B2, “Zinc-responsive fluorophores” (Northwestern University, priority 2019, dated 2024).
Entries after “also recorded” stand apart in the source; their conditions may differ. Where two headings read alike, the source gives them in different places.

What was measured:
[1] = previously reported value; read-out: zinc dissociation constant (reported); cited from earlier work
[2] = cited from earlier work; for Brightness (ε*Φ/1000) / Extinction Coefficient (ε) / Quantum Yield (Φ) / λAbs (max) / λEm (max): values reported in Que et al.
C. elegans = test: Confocal imaging of zinc in C. elegans worms; type: in vivo
Text: [formula] [formula] where r(t) is the anisotropy, P(t) is the polarization, Ivv and Ivh are intensities with polarization in the vertical plane and the excitation in the vertical and horizontal planes respectively, Ihv and Ihh are intensities with polarization in the horizontal plane and the excitation in the vertical and horizontal planes respectively, and G is a g-factor that corrects for instrument sensitivity in the horizontal and vertical planes. Metal content of NMR samples. Inductively coupled plasma mass spectrometry (ICP-MS) was performed on a Thermo iCAP Q ICP-MS. 1 mg/mL of ZincBY-1 or ZincBY-4 in acetonitrile-d3 or acetonitrile-d3 only was evaporated overnight at 70° C. 150 μL of HNO3 was added and the samples were digested overnight at 70° C. Samples were diluted to a final nitric acid concentration of 3%. […] Only ^56Fe and ^64Zn were detected in the samples above background levels. […] Calculated spectra were broadened by Gaussians of width 0.2 eV, and red shifted by 0.64 eV to better match the experimental spectra per Momeni and Brown (Ref. B7; incorporated by reference in its entirety). […] Wildtype strain Bristol N2 was used as a control strain in fluorescence microscopy experiments. […] III; ruIs57[unc-119(+) pie-P1^promoter:GFP::tubulin] was used as a marker for cortical granules in fluorescence microscopy experiments. […]

Compound | Kd [1] [nM] | Brightness (ε*Φ/1000) ([2]; Apo) | Extinction Coefficient (ε) ([2]; Apo) | Quantum Yield (Φ) ([2]; Apo) | λAbs (max) ([2]; Apo) [nm] | λEm (max) ([2]; Apo) [nm] | Brightness (ε*Φ/1000) ([2]; Zn-bound) | Extinction Coefficient (ε) ([2]; Zn-bound) | Quantum Yield (Φ) ([2]; Zn-bound) | λAbs (max) ([2]; Zn-bound) [nm] | λEm (max) ([2]; Zn-bound) [nm] | Stokes shift ([2]; literature (Ref. A18)) [nm] | fluorescence pattern in stained worms (C. elegans; ZincBY-4 stained worms) | spectral overlap with GFP in C. elegans (C. elegans; single excitation at 488 nm)
COc1ccc2n1[B-](F)(F)[N+]1=C(N(CCN(Cc3ccccn3)Cc3ccccn3)Cc3ccccn3)C=CC1=C2c1c(C)cc(C)cc1C [ZincBY-1, reference compound] | 2.6 | 0.57(6) M^−1cm^−1 | 1.1(0.05) × 10^4 M^−1cm^−1 | 0.052(3) | 533 | 560 | 2.6(5) M^−1cm^−1 | 2.0(3) × 10^4 M^−1cm^−1 | 0.13(2) | 533 | 543 | 11 | – | –
CC(=O)NCCOc1ccc2n1[B-](F)(F)[N+]1=C(N(CCN(Cc3ccccn3)Cc3ccccn3)Cc3ccccn3)C=CC1=C2c1c(C)cc(C)cc1C [ZincBY-4, N-(2-((7-((2-(bis(pyridin-2-ylmethyl)amino)ethyl)(pyridin-2-ylmethyl)amino)-5,5-difluoro-10-mesityl-5H-5λ4,6λ4-dipyrrolo[1,2-c:2′,1′-f][1,3,2]diazaborinin-3-yl)oxy)ethyl)acetamide] | – | – | – | – | – | – | – | – | – | – | – | – | pattern of increasing fluorescence intensity as oocytes progress through the gonad | small amount of ZincBY-4 emission detected in the 495-530 nm emission channel; also recorded: very little overlap of ZincBY-4 in the GFP detection channel
